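Protocol summary: plate cells (96-well), add compound at 5 concentrations, incubate 48 h, interpolate endpoints linearly. The concentration for full growth arrest is given as TGI.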
Columns and labels:
Test in all cases: NCI-60 cell line screen, 48 h
UACC-257 melanoma = test system: UACC-257 melanoma
OVCAR-8 ovarian = test system: OVCAR-8 ovarian
BT-549 breast = test system: BT-549 breast
SK-MEL-2 melanoma = test system: SK-MEL-2 melanoma
SNB-75 CNS = test system: SNB-75 CNS
MDA-MB-231 breast = test system: MDA-MB-231 breast
A498 renal = test system: A498 renal
LOX IMVI melanoma = test system: LOX IMVI melanoma
SK-OV-3 ovarian = test system: SK-OV-3 ovarian
MALME-3M melanoma = test system: MALME-3M melanoma

Row | Compound | TGI (UACC-257 melanoma) [µM] | TGI (OVCAR-8 ovarian) [µM] | TGI (BT-549 breast) [µM] | TGI (SK-MEL-2 melanoma) [µM] | TGI (SNB-75 CNS) [µM] | TGI (MDA-MB-231 breast) [µM] | TGI (A498 renal) [µM] | TGI (LOX IMVI melanoma) [µM] | TGI (SK-OV-3 ovarian) [µM] | TGI (MALME-3M melanoma) [µM]
1 | CC(=O)Nc1ncc(Sc2ccccc2C(=O)O)s1 | > 100 | > 100 | > 100 | > 100 | > 100 | > 100 | > 100 | > 100 | – | –
2 | O=C1OC(c2ccc(O)c(Cl)c2)(c2ccc(O)c(Cl)c2)c2ccc(Br)c3cccc1c23 (tested in a mixture with another compound) | 34.8 | 51.9 | 18.6 | 42.1 | 37.8 | 29.4 | 31.7 | 40.3 | 32.2 | 39.3
3 | O=C(Oc1ccccc1)c1cc2cc(CCl)ccc2oc1=O | 27.5 | > 100 | > 100 | 15.3 | 57.3 | 82 | 33.9 | > 100 | 83.2 | 8.11
4 | C=C(C=O)c1c2c(nc3ccccc13)C(=O)c1ccccc1C2=O | – | 2.3 | 3.57 | – | 2.18 | 3.27 | 3.76 | 45 | 12.8 | 3.27
5 | O=C1c2cc3ccccc3cc2C2(c3ccc(Cl)cc3)N[C@H]3CCCC[C@@H]3N12 (stereo partly specified) | 48 | 19.4 | 36.9 | 35.4 | 37.5 | 36.2 | 39.7 | 55.8 | 31.9 | 36.8
6 | NC1CC(=O)c2csc(Br)c21 (stereo unspecified) | 34.8 | 33.6 | 26.5 | 31.3 | > 79.5 | > 53.6 | > 57.9 | 29 | > 100 | 33.9
7 | COc1ccc(Cc2nc3cc(C(F)(F)F)ccc3n2CCCN(C)C)cc1 | 33.2 | > 100 | 43.4 | 36.1 | – | 64.6 | 35.6 | 40 | 41.9 | 29.1
8 | COc1cc(N=NN(C)C)c(C(C)c2c3cc(OC)c(OC)cc3cc[n+]2C)cc1OC (stereo unspecified) | > 100 | > 100 | > 100 | 87.5 | > 100 | 77 | > 100 | > 100 | > 100 | 87.5
9 | O=P(O)(O)C(O)/C=C/c1ccccc1 (stereo unspecified) | > 100 | > 100 | > 100 | > 100 | > 100 | > 100 | > 100 | > 100 | > 100 | > 100
10 | O=C(O)CSCC(=O)Nc1ccc2cccc3c2c1CC3 | > 100 | > 100 | > 100 | > 100 | > 100 | > 100 | > 100 | > 100 | – | > 100
11 | COc1ccc2c3c1OC1C(=O)C=CC4(O)C(C2)NCC[C@@]314 (stereo partly specified) | 5.3 | 6.36 | 6.32 | 6.65 | 4.32 | 9.01 | 9.39 | 5.15 | 11.2 | 2.81
12 | CCc1n[nH]c(=O)n1N1C(=O)C2CC=CCC2C1=O (stereo unspecified) | > 100 | > 100 | > 100 | > 100 | > 100 | > 100 | > 100 | > 100 | > 100 | > 100
13 | O=C(Cn1nc(Br)c(Br)c1Br)c1ccccc1 | 63.5 | > 100 | 80.4 | 56.7 | 63.8 | 84.5 | 85.8 | 32.2 | 95.2 | 72.4
14 | CCCN1C(=O)CCC2=C1CCc1c2ccc(Cl)c1Cl | > 100 | > 100 | > 100 | 41.6 | 33.9 | 48.7 | 33.2 | > 100 | 69.1 | > 100
15 | CC(C)(C)c1ccc(CN2CCN(C(c3ccccc3)c3ccc(Cl)cc3)CC2)cc1 (stereo unspecified) | > 100 | > 100 | > 100 | > 100 | > 100 | > 100 | > 100 | > 100 | > 100 | > 100
16 | CC1CCCC2=C1C(c1ccc(Cl)cc1)n1c(s/c(=C\c3ccc(Cl)cc3)c1=O)=N2 (stereo unspecified) | > 100 | > 100 | > 100 | > 100 | > 100 | > 100 | > 100 | > 100 | > 100 | –
17 | COc1ccc(C2SCC(=O)N2c2ccc(-c3ccc(-n4c(-c5ccccc5)nc5ccccc5c4=O)cc3)cc2)cc1 (stereo unspecified) | > 100 | > 100 | > 100 | 86.7 | – | > 100 | > 100 | > 100 | > 100 | > 100
18 | NC1C/C(=N\O)c2c(I)sc(I)c21 (stereo unspecified) | 31.8 | 29.1 | 29.9 | 35.2 | 33.4 | 39.3 | > 58 | 15.6 | 30.2 | 30.1
19 | CN1C(c2ccccc2)=CC(=O)C(O)=C(c2ccccc2)S1(=O)=O | > 100 | > 100 | > 100 | > 100 | > 100 | > 100 | – | > 100 | > 100 | > 100
20 | CC[C@@]1(O)C(=O)OCc2c1cc1n(c2=O)Cc2c-1nc1ccccc1c2CC[Si](C)(C)C | – | > 100 | > 100 | 0.484 | – | > 53.9 | 0.315 | – | 14 | 0.155
21 | O=C(/C=C/c1ccc(O)c(O)c1)OCCc1cccc2ccccc12 | 28.2 | 19.9 | 21.2 | 10.2 | 9.57 | 7.56 | 24.8 | – | – | 19.5
22 | CC(=O)C1=C(N=[N+]=[N-])c2cccc3cccc(c23)C1=O | 43.8 | 65.8 | 46.2 | 31.4 | 66.9 | 32 | 71 | 30.1 | 82.3 | 33.5
23 | Nc1nc(Cl)cc(NCC2(CO)CCC(Cc3ccccc3)C2)n1 (stereo unspecified) | > 50.7 | > 100 | 78.7 | > 75.7 | > 89.9 | > 100 | > 65.8 | 37.4 | > 90.6 | > 71.9

Reference: PubChem BioAssay (NCI)
